Assay results: patent publication US9950073B2, “Peptide sequence design and use thereof for peptide-mediated siRNA delivery” (Positec Power Tools (Suzhou) Co Ltd, priority 2011, dated 2018)

System: siRNA
Test: Fluorescence spectroscopy of peptide-siRNA interaction
Format: binding
Procedure: The peptide C6M1 was used in this experiment to study the interaction between peptide and siRNA using fluorescence spectroscopy method. C6M1 has four tryptophan amino acids which can be used as fluorescence probe. […] A blue shift from 355 to 330 nm was also observed in molar ratios of less than 40:1, clearly at 20:1 and 10:1, probably due to the change in the environment of tryptophan by adding more hydrophilic siRNA molecules.
A similar experiment was also performed by tracking the fluorescence property of labeled siRNA, interacting with C6M1. […] The red shift could also be an indicator of a change in the siRNA environment and/or conformational change in siRNA structure upon interacting with peptides.

RLWRLLWRLWRRLWRLLR (C6M1) was tested, and the “tryptophan fluorescence intensity of C6M1 on adding siRNA” value (fixed C6M1 concentration, more siRNA added) was “intensity of fluorescence decreased”, the “fluorescence spectra of labeled siRNA” value (low molar ratios of 2:1 and 4:1) was “no significant change” and the “fluorescence intensity of labeled siRNA” value (molar ratios of 10:1 and 20:1) was “intensity decreased”. For the same sequence, the “blue shift of fluorescence” value (molar ratios of less than 40:1, clearly at 20:1 and 10:1) was 355 to 330 nm.
